This note sets out measurements from article PMC11436673 (Journal of Experimental Pharmacology, 2024).

For this experiment, the target named is T1, human monoacylglycerol lipase (MGL) (Homo sapiens, UniProt Q99685).
T1 sequence (Q99685 1-303): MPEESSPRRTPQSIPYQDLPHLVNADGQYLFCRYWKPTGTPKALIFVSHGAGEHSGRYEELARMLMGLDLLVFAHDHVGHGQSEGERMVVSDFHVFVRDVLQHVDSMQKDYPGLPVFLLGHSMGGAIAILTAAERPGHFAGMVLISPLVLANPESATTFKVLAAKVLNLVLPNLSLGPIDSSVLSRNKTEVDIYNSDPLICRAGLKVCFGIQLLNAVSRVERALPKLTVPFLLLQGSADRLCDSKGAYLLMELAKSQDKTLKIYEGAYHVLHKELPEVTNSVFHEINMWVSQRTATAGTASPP
The experiment is classed as biochemical.

With `CC[C@H](CC[C@@H](C)[C@H]1CC[C@H]2[C@@H]3CC=C4C[C@@H](O)CC[C@]4(C)[C@H]3CC[C@]12C)C(C)C` [beta-sitosterol], the IC50 (commonly the concentration that gives 50% inhibition) was 19.5 µM.
